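A five-concentration, 48-hour dose response in 96-well plates underlies each endpoint, interpolated linearly between surrounding concentrations. GI50 is the concentration that inhibits growth by half. The concentration for full growth arrest is given as TGI.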
Experiments:
Assay in all cases: growth of human tumour cells (NCI), 48 h
SF-539 CNS = tested on: SF-539 CNS
DU-145 prostate = tested on: DU-145 prostate
EKVX NSCLC = tested on: EKVX NSCLC
SNB-75 CNS = tested on: SNB-75 CNS
SF-268 CNS = tested on: SF-268 CNS
NCI-H226 lung = tested on: NCI-H226 lung
COLO 205 colon = tested on: COLO 205 colon
HS 578T breast = tested on: HS 578T breast
OVCAR-3 ovarian = tested on: OVCAR-3 ovarian
NCI-H522 lung = tested on: NCI-H522 lung

## O=C(O)C(CO)NC(=O)C1C(C(=O)O)C(c2ccccc2[N+](=O)[O-])C=C(c2ccco2)N1c1ccncc1 (centres undefined)
SF-539 CNS
  TGI: 3.64 µM
DU-145 prostate
  TGI: 23.6 µM
EKVX NSCLC
  TGI: 32.7 µM
SNB-75 CNS
  TGI: 22.3 µM
SF-268 CNS
  TGI: 30.5 µM
NCI-H226 lung
  TGI: 39.1 µM
COLO 205 colon
  TGI: 12 µM
HS 578T breast
  TGI: 57.5 µM
OVCAR-3 ovarian
  TGI: 17.1 µM
NCI-H522 lung
  TGI: 19 µM

## CC(C)C(/C=C/c1ccccc1)=N\NC(=S)NN
SF-539 CNS
  TGI: > 100 µM
DU-145 prostate
  TGI: > 100 µM
EKVX NSCLC
  TGI: > 100 µM
SNB-75 CNS
  TGI: > 100 µM
SF-268 CNS
  TGI: > 100 µM
NCI-H226 lung
  TGI: > 100 µM
COLO 205 colon
  TGI: > 100 µM
HS 578T breast
  TGI: > 100 µM
OVCAR-3 ovarian
  TGI: > 88.8 µM
NCI-H522 lung
  TGI: > 89.3 µM

## CC(C)(C)c1cc(C2NC(=O)NC2=O)cc(C(C)(C)C)c1O (centres undefined)
SF-539 CNS
  TGI: > 100 µM
DU-145 prostate
  TGI: > 100 µM
EKVX NSCLC
  TGI: > 100 µM
SNB-75 CNS
  TGI: 84.4 µM
SF-268 CNS
  TGI: > 100 µM
NCI-H226 lung
  TGI: > 100 µM
COLO 205 colon
  TGI: > 100 µM
HS 578T breast
  TGI: 69.8 µM
OVCAR-3 ovarian
  TGI: > 100 µM
NCI-H522 lung
  TGI: > 100 µM

## C=C1[C@H](OCC(C)C)[C@@H](OC(=O)C(C)CC)[C@@H](O)C(C)(C)/C=C/[C@H](C)C(=O)[C@@]2(O)C[C@H](C)[C@H](O)[C@@H]2[C@H]1OC(=O)C(C)CC (some centres undefined)
SF-539 CNS
  TGI: > 14.9 µM
DU-145 prostate
  TGI: > 20 µM
EKVX NSCLC
  TGI: > 20 µM
SNB-75 CNS
  TGI: > 18.7 µM
SF-268 CNS
  TGI: > 20 µM
NCI-H226 lung
  TGI: > 20 µM
COLO 205 colon
  TGI: > 9.67 µM
HS 578T breast
  TGI: 10.6 µM
OVCAR-3 ovarian
  TGI: > 13.7 µM
NCI-H522 lung
  TGI: > 20 µM

## CC1=CC(=O)/C(=C/N2CCNC2=S)C(=O)O1
SF-539 CNS
  TGI: > 100 µM
DU-145 prostate
  TGI: > 100 µM
EKVX NSCLC
  TGI: > 100 µM
SNB-75 CNS
  TGI: > 100 µM
SF-268 CNS
  TGI: > 100 µM
NCI-H226 lung
  TGI: > 100 µM
COLO 205 colon
  TGI: > 100 µM
HS 578T breast
  TGI: > 100 µM
NCI-H522 lung
  TGI: > 100 µM

## COC1CCC(n2c([C@@H]3CCCC(=O)N3c3ccc(F)c(F)c3)nc3cc(-c4c(C)noc4C)ccc32)CC1 (some centres undefined)
SF-539 CNS
  GI50: 9.79 µM
  TGI: 23 µM
DU-145 prostate
  GI50: 16.8 µM
  TGI: 54.2 µM
EKVX NSCLC
  GI50: 3.97 µM
  TGI: > 100 µM
SNB-75 CNS
  GI50: 0.0108 µM
  TGI: 0.961 µM
SF-268 CNS
  GI50: 14.6 µM
  TGI: 56.4 µM
NCI-H226 lung
  GI50: 4.31 µM
  TGI: 19.7 µM
COLO 205 colon
  GI50: 2.16 µM
  TGI: 17.8 µM
HS 578T breast
  GI50: 2.1 µM
  TGI: 9.86 µM
OVCAR-3 ovarian
  GI50: 10.5 µM
  TGI: 32.3 µM
NCI-H522 lung
  GI50: 2.93 µM
  TGI: 19.8 µM

## C/C(=N\NC(=O)N/N=C(\C)c1ccccn1)c1ccccn1
SF-539 CNS
  TGI: 3.04 µM
DU-145 prostate
  TGI: > 100 µM
EKVX NSCLC
  TGI: > 100 µM
SNB-75 CNS
  TGI: > 100 µM
SF-268 CNS
  TGI: > 83.9 µM
NCI-H226 lung
  TGI: > 100 µM
COLO 205 colon
  TGI: > 100 µM
HS 578T breast
  TGI: > 100 µM
OVCAR-3 ovarian
  TGI: > 100 µM
NCI-H522 lung
  TGI: > 100 µM

## Cc1ccc(C2(c3ccc(C)c(O)c3C)CCN(C)CC2)c(C)c1O
DU-145 prostate
  TGI: > 100 µM
EKVX NSCLC
  TGI: > 100 µM
SNB-75 CNS
  TGI: > 100 µM
SF-268 CNS
  TGI: > 100 µM
NCI-H226 lung
  TGI: > 100 µM
HS 578T breast
  TGI: > 100 µM
OVCAR-3 ovarian
  TGI: > 100 µM
NCI-H522 lung
  TGI: > 100 µM

## OCCNc1nc2c(N3CCCC3)nc(N3CCNCC3)nc2nc1NCc1ccccc1
SF-539 CNS
  TGI: 32 µM
DU-145 prostate
  TGI: 24.2 µM
EKVX NSCLC
  TGI: 26.9 µM
SNB-75 CNS
  TGI: 26.8 µM
SF-268 CNS
  TGI: 34.1 µM
NCI-H226 lung
  TGI: 35.2 µM
COLO 205 colon
  TGI: 24.9 µM
HS 578T breast
  TGI: 51.4 µM
OVCAR-3 ovarian
  TGI: 18.6 µM
NCI-H522 lung
  TGI: 30.7 µM

## O=[N+]([O-])c1ccc(Cl)cc1N/N=C/c1cccs1
SF-539 CNS
  TGI: > 100 µM
DU-145 prostate
  TGI: > 100 µM
EKVX NSCLC
  TGI: > 100 µM
SNB-75 CNS
  TGI: > 100 µM
SF-268 CNS
  TGI: > 100 µM
NCI-H226 lung
  TGI: > 100 µM
COLO 205 colon
  TGI: > 100 µM
HS 578T breast
  TGI: > 100 µM
OVCAR-3 ovarian
  TGI: > 100 µM
NCI-H522 lung
  TGI: > 100 µM

## C=CCc1cccc2cc(C(=O)Nc3nc(C45CC6CC(CC(C6)C4)C5)cs3)c(=O)oc12
SF-539 CNS
  TGI: > 100 µM
DU-145 prostate
  TGI: > 100 µM
EKVX NSCLC
  TGI: > 100 µM
SNB-75 CNS
  TGI: > 100 µM
SF-268 CNS
  TGI: 55 µM
NCI-H226 lung
  TGI: > 100 µM
COLO 205 colon
  TGI: 58.9 µM
HS 578T breast
  TGI: 47.9 µM
OVCAR-3 ovarian
  TGI: 67.6 µM
NCI-H522 lung
  TGI: > 100 µM

## COc1cccc(/C=N/n2c(Cc3ccc(Cl)cc3)n[nH]c2=O)c1
SF-539 CNS
  TGI: 32.6 µM
DU-145 prostate
  TGI: > 100 µM
EKVX NSCLC
  TGI: > 84 µM
SNB-75 CNS
  TGI: 25.3 µM
SF-268 CNS
  TGI: 34.9 µM
NCI-H226 lung
  TGI: > 72.3 µM
COLO 205 colon
  TGI: > 100 µM
HS 578T breast
  TGI: 72.7 µM
OVCAR-3 ovarian
  TGI: > 100 µM
NCI-H522 lung
  TGI: 50.6 µM

## CCOC(=O)C1=CN(C(=O)c2ccccc2)CCC1Cc1ccccc1 (centres undefined)
SF-539 CNS
  TGI: 63.6 µM
DU-145 prostate
  TGI: > 100 µM
EKVX NSCLC
  TGI: > 100 µM
SNB-75 CNS
  TGI: 70.3 µM
SF-268 CNS
  TGI: > 100 µM
NCI-H226 lung
  TGI: > 100 µM
COLO 205 colon
  TGI: 51.9 µM
HS 578T breast
  TGI: 92.8 µM
OVCAR-3 ovarian
  TGI: > 100 µM
NCI-H522 lung
  TGI: 40.5 µM

## O=C1OC(C(O)C(O)C(O)CO)C(O)C1O (centres undefined)
SF-539 CNS
  TGI: > 100 µM
DU-145 prostate
  TGI: > 100 µM
EKVX NSCLC
  TGI: > 100 µM
SNB-75 CNS
  TGI: > 100 µM
SF-268 CNS
  TGI: > 100 µM
NCI-H226 lung
  TGI: > 100 µM
COLO 205 colon
  TGI: > 100 µM
HS 578T breast
  TGI: > 100 µM
OVCAR-3 ovarian
  TGI: > 100 µM
NCI-H522 lung
  TGI: > 100 µM

## CN(/N=C/c1ccc(Cl)c(Cl)c1)C1=NCCN1
SF-539 CNS
  TGI: 40.4 µM
DU-145 prostate
  TGI: > 100 µM
EKVX NSCLC
  TGI: > 100 µM
SNB-75 CNS
  TGI: > 100 µM
SF-268 CNS
  TGI: > 100 µM
NCI-H226 lung
  TGI: 72 µM
COLO 205 colon
  TGI: 38.9 µM
HS 578T breast
  TGI: > 100 µM
OVCAR-3 ovarian
  TGI: > 100 µM
NCI-H522 lung
  TGI: 27.8 µM

## CCc1cc2c(oc3c4ccccc4ccc23)c(=O)[nH]1
SF-539 CNS
  TGI: > 10 µM
DU-145 prostate
  TGI: > 10 µM
EKVX NSCLC
  TGI: > 10 µM
SNB-75 CNS
  TGI: > 10 µM
SF-268 CNS
  TGI: > 10 µM
NCI-H226 lung
  TGI: > 10 µM
HS 578T breast
  TGI: > 10 µM
OVCAR-3 ovarian
  TGI: > 10 µM
NCI-H522 lung
  TGI: > 10 µM

## S=C1CSc2c(cnc3ccccc23)N1
DU-145 prostate
  TGI: > 100 µM
EKVX NSCLC
  TGI: > 100 µM
SNB-75 CNS
  TGI: > 100 µM
SF-268 CNS
  TGI: > 100 µM
NCI-H226 lung
  TGI: > 100 µM
COLO 205 colon
  TGI: > 100 µM
HS 578T breast
  TGI: > 100 µM
OVCAR-3 ovarian
  TGI: > 100 µM
NCI-H522 lung
  TGI: > 100 µM

## Cc1ccc(CC(=O)Nc2ccc(NC(=O)CNC(=O)/C=C/c3ccc(-c4ccccc4)cc3)cc2C(=O)c2ccccc2)cc1
SF-539 CNS
  TGI: 8.85 µM
DU-145 prostate
  TGI: 7.54 µM
EKVX NSCLC
  TGI: 15.8 µM
SF-268 CNS
  TGI: 7.51 µM
NCI-H226 lung
  TGI: 8.39 µM
COLO 205 colon
  TGI: 32 µM
HS 578T breast
  TGI: 21.1 µM
OVCAR-3 ovarian
  TGI: 19.1 µM
NCI-H522 lung
  TGI: 18.4 µM

## CC(C)C[C@H](NC(=O)[C@H](CCc1ccccc1)NC(=O)c1ccc2ccccc2n1)B(O)O
SF-539 CNS
  TGI: < 0.0225 µM
DU-145 prostate
  TGI: 3.49 µM
EKVX NSCLC
  TGI: 3.27 µM
SNB-75 CNS
  TGI: 0.175 µM
SF-268 CNS
  TGI: 0.397 µM
NCI-H226 lung
  TGI: 0.367 µM
COLO 205 colon
  TGI: 5.18 µM
HS 578T breast
  TGI: 0.442 µM
OVCAR-3 ovarian
  TGI: 0.0818 µM
NCI-H522 lung
  TGI: < 0.0405 µM

## Nc1ccc(-c2nc3cc(F)ccc3s2)cc1
SF-539 CNS
  TGI: > 100 µM
DU-145 prostate
  TGI: > 100 µM
EKVX NSCLC
  TGI: > 46.6 µM
SNB-75 CNS
  TGI: 50.7 µM
SF-268 CNS
  TGI: > 100 µM
NCI-H226 lung
  TGI: > 100 µM
COLO 205 colon
  TGI: > 100 µM
HS 578T breast
  TGI: > 100 µM
OVCAR-3 ovarian
  TGI: > 100 µM
NCI-H522 lung
  TGI: > 100 µM

## Clc1ccc(-c2nn3c(C45CC6CC(CC(C6)C4)C5)nnc3s2)cc1
SF-539 CNS
  TGI: > 100 µM
DU-145 prostate
  TGI: > 100 µM
EKVX NSCLC
  TGI: > 100 µM
SNB-75 CNS
  TGI: > 100 µM
SF-268 CNS
  TGI: > 100 µM
NCI-H226 lung
  TGI: > 100 µM
COLO 205 colon
  TGI: > 100 µM
HS 578T breast
  TGI: > 100 µM
OVCAR-3 ovarian
  TGI: > 100 µM
NCI-H522 lung
  TGI: > 100 µM
